Read-outs that look alike come from different tables or passages of the source.
Columns and labels:
[1] = system: untransformed MCF10A cell line; assay: Growth and apoptosis of untransformed MCF10A cells (IncuCyte); assay type: cell-based, human; conditions: 1 mM glucose, 25 µM
human GLUT1^V69M = target: T1, human GLUT1^V69M (Homo sapiens, UniProt P11166, V69M); assay: Glucose uptake by GLUT1^V69M expressed in yeast RE700A hxt^0 gal2Δ; assay type: cell-based; conditions: 25 µM, hxt^0 gal2Δ strain
T1 construct: expressed in transfected cells; host or cells: S. cerevisiae RE700A hxt0 gal2Δ transformed with pFL38Kan-GLUT1^V69M (TEF1 promoter, low-copy)
T1 sequence (P11166 1-492 V69M): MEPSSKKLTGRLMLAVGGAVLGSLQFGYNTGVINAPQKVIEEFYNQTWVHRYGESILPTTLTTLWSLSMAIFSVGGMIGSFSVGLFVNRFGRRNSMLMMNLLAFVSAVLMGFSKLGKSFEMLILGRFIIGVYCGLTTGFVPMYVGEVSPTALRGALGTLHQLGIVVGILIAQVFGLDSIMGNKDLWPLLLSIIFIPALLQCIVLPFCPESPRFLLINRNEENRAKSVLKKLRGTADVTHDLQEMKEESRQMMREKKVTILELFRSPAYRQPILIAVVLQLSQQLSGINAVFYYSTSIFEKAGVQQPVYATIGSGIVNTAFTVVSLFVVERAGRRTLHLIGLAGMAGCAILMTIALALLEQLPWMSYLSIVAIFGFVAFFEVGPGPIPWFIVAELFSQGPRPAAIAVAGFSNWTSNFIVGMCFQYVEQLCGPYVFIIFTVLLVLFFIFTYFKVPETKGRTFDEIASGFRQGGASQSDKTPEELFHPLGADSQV
Method: (§1) Cells of S. cerevisiae were either grown in minimal or rich medium. For minimal medium, cells were grown in Complete Synthetic medium (MP biomedicals) containing 0.5% (w/v) ammonium sulphate (Sigma-Aldrich), 0.17% (w/v) yeast nitrogen base without amino acids and without ammonium sulphate, supplemented with 100 mg/L adenine. In the case of auxotrophic selection, the appropriate composition of essential amino acids (MP Biomedicals) was chosen. For liquid medium, pH was adjusted to 5.5 and for solid medium (2% agar) to 6.5 with KOH. For rich medium, cells were grown on YP medium (1% w/v yeast extract, 2% w/v bacteriological peptone), supplemented with 100 mg/L adenine. Cells of the EBY.VW4000 hxt^0 strain expressing a single HXT carrier or GLUT isoform were (pre)grown in YP medium with 58 mM maltose (which is taken up by its own dedicated maltose transporter). S. cerevisiae cells were always grown at 30°C. Liquid cultures were shaken at 200 rpm.
(§2) Zero-trans uptake of radioactively labeled [U-^14C]glucose, [U-^14C]fructose or [U-^14C]galactose by S. cerevisiae cells was determined in accordance with previous studies ([45], [75]). Cells were grown on different carbon sources depending on the experiment. […] The loaded filter was transferred to a scintillation vial containing 3 mL liquid scintillation cocktail (Ultima-Flo M, Perkin Elmer) and counted using the Hidex 300 SL. […]

[2] = system: hxk2Δ hxk1Δ glk1Δ yeast cells; assay: Glucose uptake in hxk2Δ hxk1Δ glk1Δ yeast cells; assay type: cell-based, S. cerevisiae; conditions: strain lacking glucose phosphorylation
Method: Zero-trans uptake of radioactively labeled [U-^14C]glucose, [U-^14C]fructose or [U-^14C]galactose by S. cerevisiae cells was determined in accordance with previous studies ([45], [75]). Cells were grown on different carbon sources depending on the experiment. For measuring glucose uptake activity in the tps1Δ and tps1Δ hxtΔ strains, cells were grown on YP medium containing 325 mM glycerol (measurement of 10 s). Typically, for compound characterization and kinetic studies in wild type and tps1Δ strains, cells were (pre)grown on Complete Synthetic medium supplemented with 110 mM galactose (measurement of 10 s). In the experiments on the influence of hexokinase activity on the sugar uptake rate, the measurement duration was shortened to 5 s and cells were always grown on YP medium containing 325 mM glycerol and 430 mM ethanol. After harvesting, cells were washed twice with ice-cold 25 mM MES-buffer pH 6, and resuspended in their respective medium without sugar to a final concentration of 45 mg (wet weight)/mL. The amount of added tracer was estimated to give a response close to at least 1000 counts per min in order to adequately counter background noise. […] The loaded filter was transferred to a scintillation vial containing 3 mL liquid scintillation cocktail (Ultima-Flo M, Perkin Elmer) and counted using the Hidex 300 SL. […]

yeast Hxt7 = target: T2, yeast Hxt7 (Saccharomyces cerevisiae, UniProt P39004); assay: Glucose uptake by Hxt7 expressed in yeast RE700A hxt^0 gal2Δ; assay type: cell-based, S. cerevisiae; conditions: 25 µM, hxt^0 gal2Δ strain
T2 construct: expressed in transfected cells; host or cells: S. cerevisiae RE700A hxt0 gal2Δ (A7) or EBY.VW4000 hxt0 erg4Δ (A9) transformed with pHXT7
T2 sequence (P39004 whole entry): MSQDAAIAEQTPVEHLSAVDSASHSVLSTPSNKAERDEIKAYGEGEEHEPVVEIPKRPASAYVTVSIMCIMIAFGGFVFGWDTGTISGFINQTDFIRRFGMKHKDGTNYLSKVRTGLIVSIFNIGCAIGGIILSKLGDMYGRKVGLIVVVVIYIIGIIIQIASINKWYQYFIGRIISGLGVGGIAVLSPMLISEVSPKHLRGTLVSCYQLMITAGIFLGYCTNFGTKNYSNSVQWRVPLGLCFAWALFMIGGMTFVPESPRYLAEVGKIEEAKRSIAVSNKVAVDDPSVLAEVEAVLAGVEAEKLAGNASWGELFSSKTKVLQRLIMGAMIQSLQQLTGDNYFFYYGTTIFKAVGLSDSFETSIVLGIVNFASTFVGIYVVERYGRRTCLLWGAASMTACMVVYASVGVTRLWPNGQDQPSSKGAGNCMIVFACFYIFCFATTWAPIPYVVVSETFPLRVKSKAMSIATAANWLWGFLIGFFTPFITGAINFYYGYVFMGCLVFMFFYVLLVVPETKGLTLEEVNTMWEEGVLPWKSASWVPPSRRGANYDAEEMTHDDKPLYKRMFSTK
Method: as §1, §2

[3] = system: glucose uptake by wild type yeast cells; assay: Zero-trans uptake of radioactive glucose in wild type yeast cells; assay type: cell-based, S. cerevisiae; conditions: for IC50: radioactive glucose, 10 s, read-out: IC50 for inhibition of 2.5 mM glucose uptake
Method: Zero-trans uptake of radioactively labeled [U-^14C]glucose, [U-^14C]fructose or [U-^14C]galactose by S. cerevisiae cells was determined in accordance with previous studies ([45], [75]). Cells were grown on different carbon sources depending on the experiment. For measuring glucose uptake activity in the tps1Δ and tps1Δ hxtΔ strains, cells were grown on YP medium containing 325 mM glycerol (measurement of 10 s). Typically, for compound characterization and kinetic studies in wild type and tps1Δ strains, cells were (pre)grown on Complete Synthetic medium supplemented with 110 mM galactose (measurement of 10 s). In the experiments on the influence of hexokinase activity on the sugar uptake rate, the measurement duration was shortened to 5 s and cells were always grown on YP medium containing 325 mM glycerol and 430 mM ethanol. After harvesting, cells were washed twice with ice-cold 25 mM MES-buffer pH 6, and resuspended in their respective medium without sugar to a final concentration of 45 mg (wet weight)/mL. The amount of added tracer was estimated to give a response close to at least 1000 counts per min in order to adequately counter background noise. Cells were first preincubated for 10 min at 30°C with the compound to acclimate the cells to the temperature and to allow adequate interaction with the compound prior to uptake. Next, hexose sugar was mixed with the cell suspension, which was then incubated at 30°C for 5 or 10 s, depending on the experiment, after which the cells were rapidly filtered over a glass microfiber filter (Whatman GF/C) and washed three times with ice-cold dH2O. The loaded filter was transferred to a scintillation vial containing 3 mL liquid scintillation cocktail (Ultima-Flo M, Perkin Elmer) and counted using the Hidex 300 SL. Three blank measurements per strain were typically included to account for background signal, for which the cells were first quenched before adding the radioactive label.

## Cc1nc(SCC(=O)c2ccc3c(c2)NC(=O)CO3)c2c(-c3cccs3)csc2n1 [WBC-11C]
[1]
  induction of apoptosis: induces apoptosis

## Cc1nc(Sc2nnc3n2CCCCC3)c2c(-c3cccs3)csc2n1 [WBC-A]
Human GLUT1^V69M
  inhibition of 2.5 mM glucose uptake by GLUT1^V69M: inhibited glucose uptake both by Hxt7 and GLUT1^V69M
[2]
  1 mM glucose uptake rate: little further inhibition
Yeast Hxt7
  inhibition of 2.5 mM glucose uptake by Hxt7: inhibited glucose uptake both by Hxt7 and GLUT1^V69M
[3]
  type of inhibition of glucose uptake (Lineweaver-Burk): mixed type of inhibition
  IC50: 19 µM
[3]; Saccharomyces cerevisiae
  IC50: 17.1 µM
[3]; read-out: Ki (Dixon plot) for glucose uptake
  Ki: 9.04 µM

From publication PMC11374660, “The novel family of Warbicin® compounds inhibits glucose uptake both in yeast and human cells and restrains cancer cell proliferation” (Frontiers in Oncology, 2024)
